Reference: ChEMBL document CHEMBL1129775, “Synthesis and evaluation of novel 1,5-Benzodiazepines as potent and selective CCK-B ligands. Effect of the substitution of the N-5 phenyl with alkyl groups” (Bioorg Med Chem Lett, 1996)

What was measured:
[1] = target: T1, Cholecystokinin receptor type A (Rattus norvegicus, UniProt P30551); assay: Evaluated in vitro for Cholecystokinin type A receptor affinity by measuring its ability to displace tritiated CCK-8S bound on rat pancreas Cholecystokinin type A receptor
T1 sequence (P30551 whole entry): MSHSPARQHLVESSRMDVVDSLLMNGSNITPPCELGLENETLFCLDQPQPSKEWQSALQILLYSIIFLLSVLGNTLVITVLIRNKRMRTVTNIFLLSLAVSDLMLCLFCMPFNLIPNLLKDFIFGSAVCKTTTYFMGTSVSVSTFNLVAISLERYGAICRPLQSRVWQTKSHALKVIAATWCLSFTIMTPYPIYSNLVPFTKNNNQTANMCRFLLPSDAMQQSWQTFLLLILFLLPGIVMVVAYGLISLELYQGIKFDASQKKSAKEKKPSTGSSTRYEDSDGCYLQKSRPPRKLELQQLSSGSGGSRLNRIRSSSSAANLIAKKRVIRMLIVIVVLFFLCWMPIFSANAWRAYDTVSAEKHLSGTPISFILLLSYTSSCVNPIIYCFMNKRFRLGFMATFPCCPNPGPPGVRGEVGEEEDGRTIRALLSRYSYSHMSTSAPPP

Rattus norvegicus = species: Rattus norvegicus; assay: Ratio of CCK-B receptor affinity and CCK-A receptor affinity

SMILES	Ki [1]	Ratio (Rattus norvegicus)
CC(C)CCN1C(=O)C(NC(=O)Nc2cccc(N(C)C)c2)C(=O)N(CCC(C)C)c2ccccc21	83.2 nM	32
CC(C)CCN1C(=O)C(NC(=O)Nc2ccccc2)C(=O)N(CC23CC4CC(CC(C4)C2)C3)c2ccccc21 (stereo unspecified)	288 nM	209
CC(C)CCN1C(=O)C(NC(=O)Nc2ccccc2)C(=O)N(Cc2ccccc2)c2ccccc21 (stereo unspecified)	66.1 nM	17
CC(C)CCN1C(=O)C(NC(=O)Oc2ccccc2)C(=O)N(CC23CC4CC(CC(C4)C2)C3)c2ccccc21 (stereo unspecified)	1410 nM	42
O=C(Nc1cccc(Cl)c1)NC1C(=O)N(CC23CC4CC(CC(C4)C2)C3)c2ccccc2N(C2CCCCC2)C1=O (stereo unspecified)	240 nM	22
O=C(NC1C(=O)N(CC23CC4CC(CC(C4)C2)C3)c2ccccc2N(C2CCCCC2)C1=O)Oc1ccccc1 (stereo unspecified)	1100 nM	26
CC(CC1CCCC1)N1C(=O)C(NC(=O)Nc2ccccc2)C(=O)N(C(C)CC2CCCC2)c2ccccc21 (stereo unspecified)	229 nM	
CC(C)CCN1C(=O)C(NC(=O)Oc2cccc(N(C)C)c2)C(=O)N(CC23CC4CC(CC(C4)C2)C3)c2ccccc21 (stereo unspecified)	1580 nM	209
CC(C)CCN1C(=O)C(NC(=O)Nc2ccccc2)C(=O)N(CCC(C)C)c2ccccc21	61.7 nM	26
CC(C)CCN1C(=O)C(NC(=O)Oc2cccc(N(C)C)c2)C(=O)N(CCC(C)C)c2ccccc21	794 nM	28
O=C(Nc1ccccc1)NC1C(=O)N(CC23CC4CC(CC(C4)C2)C3)c2ccccc2N(CC23CC4CC(CC(C4)C2)C3)C1=O (stereo unspecified)	2000 nM	58
CC(C)CCN1C(=O)C(NC(=O)Nc2cccc(N(C)C)c2)C(=O)N(CC23CC4CC(CC(C4)C2)C3)c2ccccc21 (stereo unspecified)	955 nM	170
O=C(Nc1ccccc1)NC1C(=O)N(CC23CC4CC(CC(C4)C2)C3)c2ccccc2N(C2CCCCC2)C1=O (stereo unspecified)	562 nM	234
O=C(Nc1ccccc1)N[C@@H]1C(=O)N(CC23CC4CC(CC(C4)C2)C3)c2ccccc2N(c2ccccc2)C1=O (single isomer, unassigned; (+))	1120 nM	
